Results on one compound are retold here after patent US20050002552A1, “Automated in vitro cellular imaging assays for micronuclei and other target objects” (Pfizer Inc, priority 2003, published 2005).

Data set [1] concerns Chinese hamster ovary cells. To be noted: stated as known; cited from earlier work.
Data set [2] deals with Chinese hamster ovary cells. To be noted: cut-off two to three times the negative control value (1.1%); both wells, automated and manual scoring.
From the text: A small quantity of a discovery drug candidate will be added to each well (the amount will usually be in the range of from 0 micrograms to about 500 micrograms and often in the range of from 0 micrograms to about 100 micrograms), desirably in a carrier medium containing DMSO (dimethyl sulfoxide), ethanol, methanol, acetonitrile, and/or water.
A mixture such as one containing amino acids (e.g., L-glutamine), serum (e.g., 5% fetal bovine serum), and glucose will be added to the wells to provide an aqueous growth medium for the cells. […] The presence of binucleated cells in the microwell at the end of the process is proof that nuclear division occurred in the presence of the discovery drug candidate.
After the cells become attached to the plate bottom, a chemical stimulus (agent) such as a discovery drug candidate can be added to each well. […]
If more than one micronuclei is found in a single cell, the cell is likely undergoing nuclear fragmentation as a result of apoptosis (programmed cell-death) and, accordingly, should be discarded from the final analysis. The micronuclei rate or frequency can be calculated as the number of micronucleated cells divided by the total number of nuclear division in a sample (the rate or frequency may be converted to a percentage by multiplying the rate or frequency by 100).
Data set [3] concerns Chinese hamster ovary cells. Kind of data set: In vitro micronucleus assay, non-Cytochalasin B protocol (mononucleated cells). To be noted: cut-off double the DMSO value (micronuclei frequencies of 1.2% and higher are positive); manual or automated scoring; per run.
Method: Accordingly, the method of this invention was also used to determine micronuclei frequency in non-cytokinesis-blocked cell samples (i.e., cell samples that were not treated with Cytochalasin B or the like) and, therefore, which were mononucleated.
In the second set of experiments, Chinese hamster ovary cells were used and the only difference in treatment and image acquisition protocol between runs in this set was the stimulus (i.e., chemical agent) with which the cells were incubated. Cytochalasin B was not used is this set of experiments (and, thus, the cells remained virtually all mononucleated throughout the experiment).

Read-outs that look alike come from different tables or passages of the source.

Consider `CO[C@@]12[C@H](COC(N)=O)C3=C(C(=O)C(C)=C(N)C3=O)N1C[C@@H]1N[C@@H]12` [Mitomycin C], for which the “Known aneugenicity/clastogenicity (positive control)” value in data set [1] is “aneugenic/clastogenic”. In addition, the “Response call (clastogenic/aneugenic) against negative control” value in data set [2] is recorded as “positive response”; in data set [3], “positive”.
